Experimental data as given in paper PMC11483813, “Bombesin-Targeted Delivery of β-Carboline-Based Ir(III) and Ru(II) Photosensitizers for a Selective Photodynamic Therapy of Prostate Cancer” (Inorganic Chemistry, 2024).
Residues, ends and D or L forms follow the SMILES beside them. *: point of attachment. X1 = Cn1c2ccccc2c2ccnc(-c3ccc(/C=C/C(=O)*)cn3)c21

Legend:
PC-3 cells = test: Clonogenic assay; format: cell-based, human; details: 5 μM, blue light irradiation, 10 days, versus control cells
Method: The effect of the metallopeptides Ir-BN and Ru-BN as well as of the complexes Ir-H and Ru-H on the viability of PC-3 cells was next investigated through clonogenic assays, which determine the fraction of cells that survive treatment and retain the ability to generate new colonies.[56] This is a crucial feature of metastatic cancer cells, which need to proliferate in distant tissues to create secondary tumors. For this purpose, PC-3 cells were treated with the compounds at an equimolar concentration of 5 μM with or without photoactivation with blue light. Ten days later, the number of cells that survived and were able to grow and form colonies was assessed in comparison to control cells. Cells treated with cisplatin were used as a positive control.
Figure 8 Clonogenic assay. PC-3 cells were treated with the indicated compounds at 5 μM in the dark and with blue light irradiation. Control cells were treated with the medium alone. Cisplatin was used as a positive control. Cells were incubated for 10 days to allow colony formation. (A) Images of the colonies. (B) Bar charts representing the percentage of colonies versus control cells after each treatment (mean ± SD of 3 experiments). ** p < 0.01; *** p < 0.001 versus control cells.
PC-3 cells were seeded at a density of 100000 cells per well in 12-well plates and allowed to adhere for 24 h. The cells were treated with the compounds […] for 4 h and subsequently irradiated with blue light or kept in the dark for one hour. The treatments were then removed, and the cells were washed with PBS, harvested by trypsinization, and counted using a Novocyte flow cytometer (Agilent Technologies). Subsequently, 3000 cells were seeded in 5 cm culture dishes and incubated for 10 days to allow colonies to form. A colony was defined to consist of at least 50 cells. Cells treated with cisplatin (5 μM) were used as a positive control, and cells treated with the culture medium alone were used as a negative control. […] Each compound was evaluated in triplicate.

[1] = n-octanol/PBS partition coefficient, shake flask; format: physicochemical; details: UV/vis
Method: First, the n-octanol/PBS partition coefficient values, log Poct/PBS, of the metal PSs were experimentally determined to quantify their lipophilicity (Figure S56). Indeed, the shake flask method was employed, and the metal content was measured in both phases by UV/vis spectroscopy. […]
an integrating sphere. For the determination of the luminescence lifetime, the fluorescence decay was measured on a FLS980 spectrofluorometer equipped with a TSCPC laser (Ir(III) complexes: λ ex = 405 nm; Ru(II) complexes: λ ex = 450 nm) and a REDPMT detector. The F980 spectrometer operating software was used to collect and process luminescence lifetime data.
Photostability of Ir(III) and Ru(II) complexes. The photostability of Ir(III) or Ru(II) complexes was monitored by 1H RMN. The 1.5 × 10−2 M solutions of the complexes in DMSO-d6:D2O (3:2) at 25 °C were irradiated with blue LED light (λ irr = 460 nm, 24 W) for different intervals of time. […]
Singlet oxygen generation. The capacity of Ir-Me and Ru-Me to generate singlet oxygen ( 1O2) was determined by an indirect method using 9,10-anthracenediyl-bis(methylene) dimalonic acid (ABDA) as a probe. The reaction between ABDA and 1O2 was monitored by UV-Vis and the gradual decrease of the maximum at 379 nm was used to quantify the ability of our complexes to generate 1O2. Aerated solutions of ABDA (8 × 10^-5 M) and the corresponding PS in H2O:DMSO (50:50) were irradiated with a blue LED strip (λ ir = 460 nm; 24 W) at room temperature for intervals of 5 minutes (0 min → 100 min) and UV-Vis spectra were recorded after every irradiation interval. Concentrations of PS were tuned to achieve similar values of absorbance at 460 nm (A460 nm ≈ 0.06). The singlet oxygen quantum yield (φ) was determined using Rose Bengal (RB) as standard reference (φ Δ = 0.75)6 and the following equation:7 […]
where kPS and kRB represent the decomposition rate constants of the photobleaching of ABDA determined by the slope calculated from the linear fit of ln(A 0/A) vs time. […]
Determination of Lipophilicity. […] The log P oct/PBS values were determined as follows: […]

| log Poct/PBS [1] | Compound | decrease in number of colonies (PC-3 cells) |
| --- | --- | --- |
| – | CC(C)C[C@H](NC(=O)[C@H](CC(C)C)NC(=O)[C@H](Cc1c[nH]cn1)NC(=O)CNC(=O)[C@@H](NC(=O)[C@H](C)NC(=O)[C@H](Cc1c[nH]c2ccccc12)NC(=O)[C@H](CCC(N)=O)NC(=O)[C@H](CC(N)=O)NC(=O)CNC(=O)[C@H](CC(C)C)NC(=O)[C@H](CCCNC(=N)N)NC(=O)[C@H](CCC(N)=O)NC(=O)/C=C/c1ccc(-c2nccc3c4ccccc4n(C)c23)nc1)C(C)C)C(N)=O [Ir-BN] (X1-QRLGNQWAVGHLL-NH2) | 34.7% |
| 1.80 | Cn1c2ccccc2c2ccnc(-c3ccc(/C=C/C(=O)O)cn3)c21.[Cl-].[Ir+3].[c-]1ccccc1-c1ccccn1.[c-]1ccccc1-c1ccccn1 [Ir-H] | 27.3% |
| 2.03 | COC(=O)/C=C/c1ccc(-c2nccc3c4ccccc4n(C)c23)nc1.[Cl-].[Ir+3].[c-]1ccccc1-c1ccccn1.[c-]1ccccc1-c1ccccn1 [Ir-Me] | – |
| −1.10 | Cn1c2ccccc2c2ccnc(-c3ccc(/C=C/C(=O)O)cn3)c21.[Cl-].[Cl-].[Ru+2].c1ccc(-c2ccccn2)nc1.c1ccc(-c2ccccn2)nc1 [Ru-H] | No effect |
